“Also recorded” adds a separate entry of the source.
What was measured:
IGF-1 [1] = assay: Plasma IGF-1 levels by ELISA after multiple doses of CP; format: in vivo, mouse; details: 28 days; HNG 10 mg/kg BW daily subcutaneously; CP 150 mg/kg BW IP, 6 doses
Protocol: The objective of this study was to investigate whether HNG has protective effect on sperm output after multiple doses of CP in mice. Thirty adult male mice (C57BL/6J) were randomized into 4 groups: 1) 5 as control; 2) 5 received daily subcutaneously injection of HNG (10 mg/kg BW); 3) 10 were given 6 doses of CP (150 mg/kg BW) intraperitoneally at 5-day intervals; 4) 10 received both HNG and CP. All mice were killed at 28 days. Plasma HNG and IGF-1 levels were measured by ELISAs. The cauda epididymal sperm count was performed using a hemocytometer.

IGF-1 [2] = assay: Plasma IGF-1 in mice bearing metastatic lung melanomas; format: in vivo, mouse; details: 14 days; HNG 5 mg/kg/day IP; CP 200 mg/kg IP single injection
[3] = system: B16 murine melanoma cells; assay: Metastatic lung tumors in mouse B16 melanoma model (Experiments 3 and 4); format: in vivo
Protocol: A total of 25 young adult mice (10-12 weeks) were randomly divided into 5 groups (n=5 per group). Five mice were used as control. Twenty mice were inoculated intravenously with B16 murine melanoma cells (2×10^5 cells/mouse). Among these 20 tumor-inoculated mice, 5 mice received no further treatment. After one week, the remaining 15 mice were divided into 3 groups and injected with: 1) HNG daily IP (5 mg/Kg body weight) for 2 weeks; 2) CP (200 mg/Kg body weight IP single injection); 3) combined CP with HNG treatment (same doses as above). All mice were sacrificed 3 weeks after tumor inoculation, and 2 weeks after HNG and/or CP treatment. The animals were sacrificed with 5% pentobarbital (200 mg/kg body weight) IP injection after which blood was collected from the right atrium of the heart. One of the testes from each mouse was immersed fixed in Bouin's solution, and the mice were perfused with saline and subsequently perfuse-fixed with 5% glutaraldehyde in 0.05 M cacodylate buffer (pH 7.4). The lungs were dissected out and post fixed in 5% glutaraldehyde solution for 24 hours and stored in cacodylate buffer at 4° C. for the subsequent tumor count (Lue, et al., 2010; Lue, et al., 2009).
Experiment 3 was repeated after inoculation of B16 melanoma tumor at week 1 and then treated with the following treatment starting at week 2 (n=5 mice per group): 1). No treatment; 2). HNG IP injections 5 mg/Kg daily; 3) CP 200 mg/Kg single IP injection; 4) HNG 5 mg/Kg/day+CP; 5). HNG IP injections 15 mg/Kg daily; and 6). HNG 15 mg/Kg/day+CP. All animals were euthanized and perfused with 4% paraformaldehyde at the end of week 3. Lungs and testes were collected and processed as in experiment 3.
B16 melanoma tumors in the lung were quantified by counting the number of tumors on the surface of the lungs under stereomicroscopy (Collisson, et al., 2003; Craft, et al., 2005). The size of the tumor was measured using histomorphometry and expressed as average size of tumor. The appearance of the melanoma cells were reviewed and characterized by an expert pathologist.

germ cells = assay: HNG on CP-induced germ cell apoptosis in mice, 24 hours (Example 6); format: in vivo, mouse; details: CP 200 mg/kg/BW IP, HNG 5 mg/kg/BW IP
Protocol: To examine the protective effects of HNG on germ cells, adult mice were treated with vehicle (control); HNG (5 mg/kg/BW, intraperitoneal injection IP); CP (200 mg/kg/BW, IP); and CP+HNG for 24 hours.

[4] = system: germ cells in seminiferous tubules; assay: Germ cell apoptosis in mouse seminiferous tubule cultures ex vivo (TUNEL); format: cell-based
Protocol: A total of 15 young adult (12-13 week-old) mice were used for these ex vivo studies. The animals were sacrificed with a 5% pentobarbital (200 mg/Kg) IP injection. Testes were dissected and after removing the tunica albuginea, seminiferous tubules isolated from testes were cut into small segments under a dissecting microscope and light and dark segments were separated by dissection. Ten to twelve segments were placed (2 mm in length) in each well on a six well plate with 2 ml serum free Ham F-10 culture medium (GIBCO, Life Technologies, Thermo Fisher Scientific Corp., Carlsbad, Calif.) with the following treatments: control (Con, n=10), heat (43° C., 15 minutes, used as a positive control, n=10); HN 10 μg/mL (n=9); DOX 10 mcM (Dox10, n=10); and DOX 10 mcM+Humanin 10 μg/mL (Dox10+HN, n=10). For these experiments, n represents the total number of times the treatment was repeated using different animals. After 12 hours of incubation at 34° C. the seminiferous tubules from each treatment group were used to make “squashed” seminiferous tubule samples on a slide for TUNEL (TdT-mediated dUTP nick-end labeling) assay to detect germ cell apoptosis (Erkkila, et al., 1997; Toppari & Parvinen, 1985). To quantify the rate of germ cell apoptosis under a light microscope at 400× magnification, a square grid fitted within the eyepiece provided a reference area of 62,500 μm^2. The TUNEL positive apoptotic germ cells within the frame of grid were counted in 4 segments of seminiferous tubules in each group. The incidence of germ cell apoptosis was expressed as the number of apoptotic germ cells per mm^2.
A total of 15 mice were used for ex vivo studies. The animals were sacrificed and seminiferous tubules isolated from testes were cut into small segments under a dissecting microscope to identify light (early stages I-IV and late stages XI-XII) of the seminiferous epithelium) and dark (middle stages VII-VIII) segments. Ten to twelve light segments (2 mm in length) were placed per well on a six well plate with 2 ml serum free medium of F-10 Ham nutrient mixture (Gibco, Life Technologies, Grand Island, N.Y.) following these treatments: control (Con, n=15 where n is the number of times the treatment was repeated with segments obtained from different donor animals), heat (43° C., 15 min.; used as a positive control, n=10), HN 10 μg/mL (HN, n=9), doxorubicin 1 μM (Dox1, n=7), doxorubicin 1 μM+HN 10 μg/mL (Dox1+HN, n=7), doxorubicin 10 μM (Dox10, n=10), and doxorubicin 10 μM+HN 10 μg/mL (Dox10+HN, n=10). After 12 hours of incubation at 34° C. with 5% CO2, the seminiferous tubules from the seven treatment groups were used to make “squashed” seminiferous tubule preparations on a slide for TUNEL assay to detect germ cell apoptosis (Erkkila K, et al., 1997). To quantify the rate of germ cell apoptosis, the squashed segments of seminiferous tubules were examined with an American Optical Microscope (Scientific Instruments, Buffalo, N.Y.) with a 40×objective and a 10×eyepiece lens. A square grid fitted within the eyepiece provided a reference area of 62,500 μm^2. The TUNEL positive apoptotic germ cells within the frame of grid were counted in 4 segments of seminiferous tubules in each group. The incidence of germ cell apoptosis was expressed as the number of apoptotic germ cells per mm^2.

[5] = Experiment 4, vs non-treated, HNG at both 5 mg/kg BW and 15 mg/kg BW, CP 200 mg/Kg

| Compound | plasma IGF-1 levels (IGF-1 [1]) [ng/mL] | plasma IGF-1 levels (IGF-1 [2]) | size of the melanoma metastasis on the surface of the lungs ([3]; Experiment 3, vs non-treated tumor-bearing mice) | number of metastatic tumors on the surface of the lungs ([3]; Experiment 3, vs non-treated tumor-bearing mice, HNG 5 mg/Kg daily IP 2 weeks, CP 200 mg/Kg single IP) | number of lung tumors [3, 5] | size of the lung tumors [3, 5] | histology of metastatic lung melanoma cells ([3]; HNG 5 mg/kg BW, CP, or both, monohydrate) | germ cell apoptosis (apoptotic index) (germ cells) | number of apoptotic germ cells induced by DOX ([4]; HN 10 μg/mL + DOX 10 μM, 12 hours) | apoptosis induced by low dose doxorubicin ([4]; HN 10 μg/mL + doxorubicin 1 μM, 12 hours) | germ cell apoptosis, HN treatment alone compared with control ([4]; HN 10 μg/mL, 12 hours ex vivo culture) | heat induced germ cell apoptosis ([4]; HN 10 μg/mL, heat 43° C., 15 min) |
| --- | --- | --- | --- | --- | --- | --- | --- | --- | --- | --- | --- | --- |
| O=P1(N(CCCl)CCCl)NCCCO1 (stereo not drawn) [CP, cyclophosphamide monohydrate] | 182.4 ± 10.5 | modestly suppressed IGF-1 | decreased number of tumors but also tumor size | decreased number of tumors | significantly decreased both the number and size of the tumors | significantly decreased both the number and size of the tumors | decreased the number of metastatic melanoma cells; also recorded: induced minor differentiation of melanoma cells | significantly increased germ cell apoptosis in all stages of spermatogenesis | – | – | – | – |
| MAPRGFSCLLLLTSEIDLPVKRRA [HN, 24-amino acid mitochondrial derived peptide] | – | – | – | – | – | – | – | – | significantly reduced the number of apoptotic germ cells | did not significantly decrease apoptosis | had no significant effect on germ cell apoptosis | prevented the heat induced germ cell apoptosis |

Reference: patent US20150374784A1, “COMPOSITIONS AND METHODS FOR REDUCING GERM CELL DEATH” (Los Angeles Biomedical Research Institute at Harbor-UCLA …, priority 2014, published 2015)
